Read-outs that look alike come from different tables or passages of the source.
Experiments:
human LXRα [1] = target: T1, human LXRα (Homo sapiens, UniProt Q13133); test: cell-based
T1 construct: expressed in transfected cells; host or cells: Saccharomyces cerevisiae Y187
T1 sequence (Q13133 205-447): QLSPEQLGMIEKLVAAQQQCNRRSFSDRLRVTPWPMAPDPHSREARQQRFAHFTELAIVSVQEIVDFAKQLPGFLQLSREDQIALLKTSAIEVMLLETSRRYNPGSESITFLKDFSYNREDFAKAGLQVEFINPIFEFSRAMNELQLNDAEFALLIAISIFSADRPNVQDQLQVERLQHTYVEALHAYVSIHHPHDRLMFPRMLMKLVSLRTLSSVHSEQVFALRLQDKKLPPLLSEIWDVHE

human LXRβ [2] = target: T2, human LXRβ (Homo sapiens, UniProt P55055); test: cell-based
T2 sequence (P55055 219-460): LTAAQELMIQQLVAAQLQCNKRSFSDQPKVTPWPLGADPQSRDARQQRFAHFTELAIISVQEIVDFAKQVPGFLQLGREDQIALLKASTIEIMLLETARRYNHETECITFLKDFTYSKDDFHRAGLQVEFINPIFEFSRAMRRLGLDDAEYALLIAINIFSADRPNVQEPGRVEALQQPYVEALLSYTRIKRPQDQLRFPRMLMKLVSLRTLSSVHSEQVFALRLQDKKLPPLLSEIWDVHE

human LXRβ [3] = target: T2, human LXRβ; test: Yeast two-hybrid assay (LXRβ LBD with coactivator TIF2, β-galactosidase readout)
atherosclerotic mice = system: atherosclerotic mice; design: method as in Joseph et al. 2002; conditions: ref Joseph et al. 2002; cited from earlier work
human LXRα [4] = target: T3, human LXRα (Homo sapiens, UniProt Q13133); type: binding
T3 construct: the full-length human LXRα gene was amplified by polymerase chain reaction (PCR); made in house; host or cells: E. coli BL21
T3 sequence (Q13133 1-447): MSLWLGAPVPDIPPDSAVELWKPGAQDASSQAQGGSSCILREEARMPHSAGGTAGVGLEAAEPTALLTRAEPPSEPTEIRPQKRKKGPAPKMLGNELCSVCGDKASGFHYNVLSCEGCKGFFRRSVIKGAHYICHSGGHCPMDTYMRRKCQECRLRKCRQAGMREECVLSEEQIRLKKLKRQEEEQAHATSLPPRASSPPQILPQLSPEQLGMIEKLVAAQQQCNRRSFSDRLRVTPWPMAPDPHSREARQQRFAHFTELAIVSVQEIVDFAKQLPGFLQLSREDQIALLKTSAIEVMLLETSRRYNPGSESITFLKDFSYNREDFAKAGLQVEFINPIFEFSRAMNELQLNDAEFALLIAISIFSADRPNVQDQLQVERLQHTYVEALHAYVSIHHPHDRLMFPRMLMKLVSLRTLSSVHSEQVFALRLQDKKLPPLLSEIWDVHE

ABCA1 = test: qRT-PCR of LXR target gene ABCA1 in RAW264.7 macrophages; type: cell-based; conditions: TO901317 at 5–100 nM with TPHP 10,000 nM
Description: (§1) RAW264.7 cells were obtained from the National Infrastructure of Cell Line Resource of Beijing, China, and the cells used for the experiment were cultured for at least three passages. Dulbecco’s Modified Eagle’s Medium (DMEM)-F12 medium containing 10% fetal bovine serum (FBS) was employed to culture the RAW264.7 cells. RAW264.7 cells were incubated at 37°C with 5% carbon dioxide. The RAW264.7 cells were plated at 2.5×10^5 cells/well (6-well plates), 6.0×10^4 cells/well (24-well plates), and 10^4 cells/well (96-well plates). The RAW264.7 cells were plated and grown overnight; then the medium was removed and fresh DMEM-F12 contained with 0.1% DMSO (control; n=3 ) or TPHP at the concentrations of 1–20,000 nM ( n=3 per group) was added. […] Then the cells were used for the quantitative reverse transcription (qRT)-PCR, cellular cholesterol efflux assay, and foam cell formation experiment.
(§2) Total RNA was isolated from RAW264.7 cells and mouse peritoneal macrophages using TRIzol reagent according to the manufacturer’s instructions. Then a Nanovue Plus™ spectrophotometer (GE Healthcare Life Science) was used to analyze the concentration, quality, and purity of the RNA. Total RNA ( 1μg ) was mixed with oligo deoxythymine (dT) ( 1μL ) at 70°C for 5 min and then combined with a mixture containing Moloney murine leukemia virus (MMLV) reverse transcriptase ( 1μL ), deoxy-ribonucleoside triphosphate (dNTP) ( 1.25μL ), Recombinant RNasin® Ribonuclease Inhibitor (Promega) ( 0.65μL ), and MMLV buffer ( 5μL ) at 42°C for 60 min. The SYBR® Green PCR Kit (TOYOBO) was used for RT-PCR analysis. Real-time fluorescence detection was performed using the StepOnePlus™ sequence detection system (Applied Biosystems). […] The following primers were designed and purchased from Sangon Biotech:
(§3) • actin: 5′-[…]-3′ and 5′-[…]-3′ ATP-binding cassette transporter A1 (ABCA1): 5′-[…]-3′ and 5′-[…]-3′ • ATP-binding cassette transporter G1 (ABCG1): 5′-[…]-3′ and 5′-[…]-3′.

ABCG1 = test: qRT-PCR of LXR target gene ABCG1 in RAW264.7 macrophages; type: cell-based; conditions: TO901317 at 5–100 nM with TPHP 10,000 nM
Description: as §1, §2, §3

[5] = dust standard reference material SRM2585
[6] = range over indoor dust samples (Table S4)

With CCCCC(CC)COP(=O)(Oc1ccccc1)Oc1ccccc1 (centres unmarked) [EHDPP, 2-ethylhexyl diphenyl phosphate] the IC50 (human LXRα [1]) was 5.69 µM, the “Contribution to the LXRα-antagonist activity of SRM2585” value (human LXRα [1]; [5]) was 3.01% and the “Share of the LXRα-antagonist activity of indoor dust explained by the chemical” value (human LXRα [1]; [6]) was 0.01–25.02%. For the same compound, the IC50 (human LXRβ [2]) was 2.17 µM, the “Contribution to the LXRβ-antagonist activity of SRM2585” value (human LXRβ [3]; [5]) was 1.55% and the “Share of the LXRβ-antagonist activity of indoor dust explained by the chemical” value (human LXRβ [3]; [6]) was 0.01–22.92%.
For O=C(O)Cc1cccc(OCCCN(Cc2cccc(C(F)(F)F)c2Cl)CC(c2ccccc2)c2ccccc2)c1 [GW3965], the Atherosclerotic plaques (atherosclerotic mice) is given as “promoted regression of atherosclerotic plaques” and the Foam cell formation (atherosclerotic mice) is given as “inhibited foam cell formation”.
O=[N+]([O-])c1ccc(O)cc1 [PNP, p-nitrophenol] gave an EC50 (human LXRα [1]; agonist mode, β-galactosidase activity, n=3) of 14 µM and an EC50 (human LXRβ [3]) of 15.1 µM.
Work on CCOC(=O)c1ccc(CN(Cc2ccc(-c3cccc(S(C)(=O)=O)c3)cc2)S(=O)(=O)c2c(C)cc(C)cc2C)o1 [SR9238, reference compound] yielded an IC50 (human LXRα [1]; read-out: IC50 for LXRα (antagonist activity)) of 0.825 µM and an IC50 (human LXRβ [2]) of 0.446 µM.
In the case of O=S(=O)(c1ccccc1)N(CC(F)(F)F)c1ccc(C(O)(C(F)(F)F)C(F)(F)F)cc1 [TO901317], the “Average percentage pulled down of the spiked concentration” value (human LXRα [4]; His-TF-LXRα group) is reported as 89%, the “Average percentage pulled down of the spiked concentration” value (human LXRα [4]; control group (His-TF protein without LXRα)) is reported as 10% and the “Recovery in pull-down by recombinant LXRα” value (“Recovery in pull-down” below) (human LXRα [4]; spiked at 0.25 μg/L) is reported as 100%±3%. For the same compound, the “Recovery in pull-down” value (human LXRα [4]; spiked at 2.5 μg/L) was 85%±5%, the “Recovery in pull-down” value (human LXRα [4]; spiked at 25 μg/L) was 80%±0.7% and the “Recovery in pull-down” value (human LXRα [4]; spiked at 250 μg/L) was 92%±4%. The “ABCA1 gene expression in cells co-exposed to TPHP, versus TPHP alone” value (ABCA1) was “dose-dependently higher” and the “ABCG1 gene expression in cells co-exposed to TPHP, versus TPHP alone” value (ABCG1) was “dose-dependently higher”.

Source: article PMC6927504, “Screening of House Dust from Chinese Homes for Chemicals with Liver X Receptors Binding Activities and Characterization of Atherosclerotic Activity Using an in Vitro Macrophage Cell Line and ApoE^−/− Mice” (Environmental Health Perspectives, 2019)
